Source: patent US20140348850A1, “METHOD FOR REDUCING BLOOD PRESSURE USING INHIBITORS OF PLASMA KALLIKREIN” (JOSLIN DIABETES CENTER, priority 2008, published 2014)

What was measured:
[1] = test system: retinal vasculature of diabetic rats; test: Retinal vessel diameters, mean circulation time and retinal blood flow in STZ-diabetic rats (video fluorescein angiography); assay type: in vivo, Sprague Dawley rats
Method: FIGS. 2A and 2B are graphs showing normalized retinal blood flow (FIG. 2A) and increased blood vessel diameter (FIG. 2B) following ASP-440 administration in diabetic rats.
We examined the effect of ASP-440 on retinal vessel diameters, mean circulation times (MCT), and retinal blood flow (RBF) in rats with diabetes. Diabetes was induced in Sprague Dawley rats with an intraperitoneal injection of 55 mg/kg of streptozotocin (STZ) (Sigma, St. Louis, Mo., USA) in 10 mmol/l citrate buffer, pH 4.5 after a 12 h fast. Diabetes was confirmed with blood glucose measurements (>14 mmol/l) 24 h after STZ injection. The rats were housed under standard conditions with free access to water and standard food. Two weeks after diabetes onset rats were implanted with a subcutaneous osmotic model 2002 Alzet pump containing either 12 mg/ml ASP-440 or saline vehicle. Rats were infused for 2 weeks at a rate of 0.5 μg/hr. Retinal vessel diameters and MCT was measured after 4 weeks of total diabetes duration and RBF was calculated as described by Horio et al. (Diabetologia 47:113-23, 2004).
To make the measurements described above, the following procedure was used. […] The recorded fluorescein angiograms were digitized on a frame-by-frame basis and analyzed densitometrically to determine retinal vessel diameters and retinal mean circulation times (MCTs), as described by Horio et al. (supra). […] Vessel diameters in units of pixels were determined during peak fluorescein arterial and venous filling times at the defined vessel sample sites using a boundary-crossing algorithm. The average diameter for each vessel was measured for each sample site. […] At the fixed vessel sites, the average vessel fluorescence within a sample area defined by the vessel width was measured on a frame-by-frame basis to generate temporal fluorescence intensity or dye dilution curves. The resultant artery and vein fluorescence data were fit to a log normal distribution function from which average arterial and venous circulation times were calculated. […]

[2] = test system: Ang-II-induced hypertension; test: BP-lowering effect in Ang-II-induced rat hypertension model (telemetry); assay type: in vivo; conditions: rats infused with Ang-II 300 ng/kg/min; ASP-440 16 ƒg/kg/hr by subcutaneous osmotic pump; vs Ang-II alone
Text: FIG. 1 is a graph showing the time course of systolic blood pressure (SBP) measured using telemetry in rats infused with Ang-II in the absence or presence of ASP-440. * and † indicate p<0.05 for Day 0 vs Ang-II alone (n=4) and Ang-II+ASP-440 (n=7), respectively. ‡ indicates p<0.05 for Ang-II alone vs Ang-Il^+ ASP-440. NS indicates statistically non-significant change from Day 0.
Rats were infused continuously with Ang-II, and concurrently with either ASP-440 or vehicle control. Treatments were achieved by the use of subcutaneous implantation of two sets of Alzet mini-osmotic pumps (DURECT corporation, Cupertino Calif.), one containing Ang-II, the other containing either ASP-440 or vehicle control. Angll (EMD Chemicals Inc, La Jolla, Calif.) was delivered at 300 ng/kg/min. ASP-440 was delivered at 16 ƒg/kg/hr, and control pumps were filled with vehicle (10% polyethylene glycol, 90% phosphate-buffered saline).
Blood pressure measurements by telemetry were performed using PA-C40 transmitters (Data Sciences International, St. Paul, Minn.). […] Rats were housed individually on a receiver pad and blood pressure was monitored continuously. […] Baseline readings (Day 0) were obtained 48 hours after catheter implantation, following implantation of Alzet mini-pumps.

[3] = 2 weeks subcutaneous pump infusion (12 mg/ml ASP-440), vs diabetic rats receiving vehicle

N=C(N)c1ccc(CNC(=O)c2cnn(Cc3ccccc3)c2)cc1 [ASP-440, 1-Benzyl-1H-pyrazole-4-carboxylic acid 4-carbamimidoyl-benzylamide]
retinal blood flow (RBF) [1, 3]: increased RBF
retinal mean circulation time (MCT) [1, 3]: shortened MCT
retinal artery and vein diameters ([1]; 2 weeks subcutaneous pump infusion, vs nondiabetic rats and saline-treated diabetic rats): increased retinal artery and vein diameters
blood pressure (systolic, telemetry) [2]: capable of reducing blood pressure
